{"source": "patent US20240124538A1", "about": "“Modulation of Wnt5a to Treat Glaucoma” (The Regents of the University of California, priority 2017, published 2024)", "key": {"Wnt5a [1]": {"molecular_target": "T1, Wnt5a (Mus musculus, UniProt P22725)", "T1 construct": "from tissue; host or cells: eye of living mice (Schlemm's canal / anterior chamber)", "T1 sequence (P22725 62-380)": "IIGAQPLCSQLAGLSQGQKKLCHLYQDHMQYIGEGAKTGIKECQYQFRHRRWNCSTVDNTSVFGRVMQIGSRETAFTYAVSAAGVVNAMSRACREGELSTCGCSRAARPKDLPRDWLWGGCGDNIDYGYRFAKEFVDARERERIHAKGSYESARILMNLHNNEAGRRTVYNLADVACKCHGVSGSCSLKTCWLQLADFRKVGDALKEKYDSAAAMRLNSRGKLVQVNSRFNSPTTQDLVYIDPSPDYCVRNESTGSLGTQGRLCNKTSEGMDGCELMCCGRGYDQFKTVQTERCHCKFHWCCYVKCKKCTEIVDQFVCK", "assay": "Mouse model of pathogenic IOP, inhibitor delivered by eye drops", "assay_type": "in vivo", "procedure": "In one protocol subconjuctival injection of siRNA is performed as described by Yuen et al. (2014, Invest Ophthalmol Vis Sci. 2014; 55:3320-3327). Mice are randomly selected to receive subconjunctival injection of 5 uL (0.2 1g/uL) siRNA or control twice a week for 2 weeks. In a second protocol intracameral injection of siRNA is performed as described by Tam et al. (2017, Scientific Reports 7, 40717). Mice are anaesthetized by intra-peritoneal injection, and pupils are dilated. A pulled blunt-ended micro-glass needle is first used to puncture the cornea to withdraw aqueous humour Immediately after puncture, a pulled blunt-ended micro-glass needle attached to a 10 μl syringe is inserted through the puncture, and 1.5 μl of PBS containing 1 μg siRNA is administered into the anterior chamber. Contralateral eyes receive an identical injection of 1.5 μl containing the same concentration of scrambled siRNA."}, "Wnt5a [2]": {"molecular_target": "T2, Wnt5a (Oryctolagus cuniculus, UniProt Q27Q52)", "T2 construct": "New Zealand White rabbits receive a topical administration; from tissue; host or cells: eye of living New Zealand White rabbits", "T2 sequence (Q27Q52 62-380)": "T1 sequence (P22725 62-380)", "assay": "Rabbit model of pathogenic IOP, inhibitor delivered by eye drops", "assay_type": "in vivo", "source_text": "To assess the effect of siRNA delivered by eye drops on IOP, we developed an additional protocol based on the methods of Martinez et al. (Mol Ther. 2014 January; 22(1):81-91), wherein New Zealand White rabbits receive a topical administration of either 20 nmol/day of siRNA or phosphate-buffered saline (PBS) over a period of 4 consecutive days."}, "[3]": {"details": "Shinonaga et al. 2009; cited from earlier work"}, "WNT-5A": {"tested_on": "WNT-5A", "details": "Shinonaga et al. 2009; cited from earlier work"}}, "data": [{"substance": "6,7-dihydro-10alpha-hydroxy radicicol", "values": [{"measurement": "therapy of pathogenic IOP", "setting": "Wnt5a [1]", "value": "effective therapies for pathogenic IOP"}, {"measurement": "therapy of pathogenic IOP", "setting": "Wnt5a [2]", "value": "effective therapies for pathogenic IOP"}, {"measurement": "toxicity", "setting": "[3]", "value": "relatively low toxicity"}, {"measurement": "WNT-5A expression inhibition", "setting": "WNT-5A", "value": "potent WNT-5A expression inhibitor"}]}]}
